Test results taken from US20080070958A1, “Therapeutic Agent for Keratoconjunctival Disorder” (priority 2004, published 2008).

Tested on: corneal damage in corneal disorder models
Assay: Test for therapeutic effect on corneal damage (rat corneal disorder model, exorbital lacrimal gland removal, fluorescein staining score)
Type: in vivo, male SD rats
Settings: for Improvement ratio (%): {(control)-(compound)}/{(control)-(normal eye)}x100; for Mean value of total scores: fluorescein staining score of cornea (upper, middle, lower parts, each 0-3), mean of 8 eyes
Procedure: Test for Therapeutic Effect on Corneal Damage Using male SD rats, in accordance with the method of Fujihara et al. (Invest. Ophthalmol. Vis. Sci. 42 (1): 96-100 (2001)), corneal disorder models were produced. After the production of the corneal disorder models, the improvement ratio of a corneal damage was evaluated according to the method of Murakami et al. (Journal of the eye 21 (1): 87-90 (2004)). Male SD rats were systemically anesthetized by an administration of Nembutal. Subsequently the exorbital lacrimal gland of each rat was removed and a corneal damage was induced over a period of 2 months. Then, E-4-[4-(5-methyl-2-phenyl-4-oxazolylmethoxy) benzyloxyimino]-4-phenylbutyric acid (Compound A), Z-2-[4-(5-methyl-2-phenyl-4-oxazolylmethoxy) benzyloxyimino]-2-(4-phenoxyphenyl) acetic acid (Compound B), 2-[2-propyl-3-[3-[2-ethyl-4-(4-fluorophenyl)-5-hydroxyphenoxy]propoxy]phenoxy]sodium benzoate (Compound C) or 2(S)-methoxy-3-[4-[3-(4-phenoxyphenoxy)propoxy]phenyl] propionic acid (Compound D) was administered to the rats as follows. A physiological saline solution of Compound A (0.006%) was instilled into both eyes 6 times a day for 7 days (one group consisting of 4 animals, 8 eyes). A physiological saline solution of Compound B (0.006%) was instilled into both eyes 6 times a day for 7 days (one group consisting of 4 animals, 8 eyes). A physiological saline solution of Compound C (0.006%) was instilled into both eyes 6 times a day for 7 days (one group consisting of 4 animals, 8 eyes). A phosphate-buffered saline (PBS) solution of Compound D (0.002%) was instilled into both eyes 6 times a day for 7 days (one group consisting of 4 animals, 8 eyes). In a control group, physiological saline or PBS was instilled into both eyes 6 times a day for 7 days (one group consisting of 4 animals, 8 eyes). Seven days after the start of instillation, the damaged parts of the cornea were stained with fluorescein. For each of the upper, middle and lower parts of the cornea, the degree of fluorescein staining was evaluated by scoring according to the criteria shown below and the mean value of the total scores for each of the above-mentioned parts was calculated. • 0: No punctate staining • 1: Scattered staining (punctate staining being separated) • 2: Moderate staining (a part of punctuate staining being adjacent) • 3: Heavy staining (punctate staining being barely separated) (Results) By taking the mean value of the total scores for the control group (physiological saline or PBS) as a standard (improvement ratio: 0%), the calculation was carried out. Each of the improvement ratios for the Compound A administration group, the Compound B administration group and the Compound C administration group is shown in Table 1 and the improvement ratio for the Compound D administration group is shown in Table 2. The mean value of the scores is a mean of those of 8 cases, respectively. The improvement ratio was calculated according to the following equation. Improvement ratio (%)={(control)−(the present compound)}/damage degree×100 Damage degree={(control)−(normal eye)}

[1] = 0.006% in physiological saline instilled into both eyes 6 times a day for 7 days, vs physiological saline control (0%)
[2] = 0.006% in physiological saline instilled into both eyes 6 times a day for 7 days, normal eye 3.0, saline control 6.1

CCCc1c(OCCCOc2cc(O)c(-c3ccc(F)cc3)cc2CC)cccc1Oc1ccccc1C(=O)[O-].[Na+] [Compound C, 2-[2-propyl-3-[3-[2-ethyl-4-(4-fluorophenyl)-5-hydroxyphenoxy]propoxy]phenoxy]sodium benzoate]
Improvement ratio (%) [1]: 38.7% | Mean value of total scores [2]: 4.9

Cc1oc(-c2ccccc2)nc1COc1ccc(CO/N=C(\C(=O)O)c2ccc(Oc3ccccc3)cc2)cc1 [Compound B, Z-2-[4-(5-methyl-2-phenyl-4-oxazolylmethoxy)benzyloxyimino]-2-(4-phenoxyphenyl) acetic acid]
Improvement ratio (%) [1]: 32.3% | Mean value of total scores [2]: 5.1

Cc1oc(-c2ccccc2)nc1COc1ccc(CO/N=C(\CCC(=O)O)c2ccccc2)cc1 [Compound A, E-4-[4-(5-methyl-2-phenyl-4-oxazolylmethoxy)benzyloxyimino]-4-phenylbutyric acid]
Improvement ratio (%) [1]: 32.3% | Mean value of total scores [2]: 5.1

CO[C@@H](Cc1ccc(OCCCOc2ccc(Oc3ccccc3)cc2)cc1)C(=O)O [Compound D, 2(S)-methoxy-3-[4-[3-(4-phenoxyphenoxy)propoxy]phenyl] propionic acid]
Improvement ratio (%) (0.002% in PBS instilled into both eyes 6 times a day for 7 days, vs PBS control (0%)): 12.0% | Mean value of total scores (0.002% in PBS instilled into both eyes 6 times a day for 7 days, normal eye 3.1, PBS control 5.6): 5.3
